Assay results as given in patent US10258595B2, “Pharmaceutical formulation for histone deacetylase inhibitors” (TetraLogic Shape UK Ltd, priority 2010, dated 2019).
Like-named read-outs stand apart in the source and are kept apart here. Blank lines part the entries; values can stand above or below the compound they belong to.

Tests used:
[1] = Method: The method has historic precedent for accurately predicting in vivo percutaneous absorption kinetics.
To assure the integrity of each skin section, its permeability to tritiated water was determined before application of the test products.

[2] = Degradation of compound (II) in neutral ethanol; assay type: physicochemical; conditions: room temperature, 24 hours
[3] = Saturation solubility of compound (II) in the gel formulation; assay type: physicochemical; conditions: acidified nonaqueous gel, refrigerated storage (2-8° C.)
[4] = Exposure of gels to laboratory light; assay type: physicochemical; conditions: exposure to laboratory light for up to five days
[5] = skin dosed with compound (II) formulations

Structure (SMILES): O=C(O)c1ccc(O)cc1 [4-OH Benzoic acid]
presence of degradation products in the samples [1, 5]: present in the majority of the samples

degradation of compound (II) [2]: approximately 50%
formulation's saturation solubility for compound (II) [3]: approximately 1.6 % w/w
effect of light on assay values for compound (II) [4]: did not significantly affect
detectable compound (II) found in the epidermis ([1]; human, 24 h, pH 6): 0.3-0.9%
detectable compound (II) found in the surface wash ([1]; human, 24 h, pH 6): 20-69%
Structure (SMILES): COC(=O)c1ccc(OC(=O)CCCCCCC(=O)NO)cc1 [Compound (II)]

presence of degradation products in the samples [1]: present in the majority of the samples
Structure (SMILES): O=C(O)CCCCCCC(=O)NO [Compound (III)]

Structure (SMILES): COC(=O)c1ccc(O)cc1 [Methylparaben]
presence of degradation products in the samples [1, 5]: present in the majority of the samples
